Measurements reported in patent EP1595536A1, “PHARMACEUTICALS COMPRISING SHIKONINS AS ACTIVE CONSTITUENT” (Beijing JBC Chinese Traditional Medicine Science and …, priority 2003, dated 2004).
In brackets after ≈: the same amount, converted by molar mass. Read-outs that look alike come from different tables or passages of the source.

Experiments:
[1] = tested on: mycoplasma pneumoniae; assay: Bacteriostatic effect on mycoplasma
[2] = tested on: Ascitic tyre liver cancer; assay: Animal test of tumor restraint; format: in vivo
[3] = tested on: pneumobacillus; assay: Drug sensitivity test (MIC)
[4] = tested on: Helicobacter pylori; assay: Drug sensitivity test (MIC)
[5] = tested on: bacteroides fragilis; assay: Drug sensitivity test (MIC)
[6] = tested on: Gram-positive staphylococcus aureus; assay: Drug sensitivity test (MIC)
[7] = tested on: stenotrophomonas bacilli; assay: Drug sensitivity test (MIC)
[8] = tested on: dermatophyte; assay: In vitro antifungal test; format: cell-based
[9] = tested on: DHBV; assay: Virus restraint in DHBV-infected duck; format: in vivo; details: oral, 100mg/kg twice a day, 10 days
[10] = tested on: Pseudallescheria boydii; assay: In vitro antifungal test; format: cell-based; details: Scedosporium boydii
[11] = tested on: Bacteroid; assay: Comparative MIC experiment, Zicao extract vs Shikonin compounds; format: cell-based
[12] = tested on: aspergillus fumigatus, cryptococcus and red trichophyton; assay: In vitro antifungal test; format: cell-based
[13] = tested on: candida and cryptococcus; assay: In vitro antifungal test; format: cell-based
[14] = tested on: Serratia marcescens; assay: Comparative MIC experiment, Zicao extract vs Shikonin compounds
[15] = tested on: C.krusei; assay: In vitro antifungal test; format: cell-based; details: Pichia kudriavzevii
[16] = tested on: Candida albicans; assay: Comparative MIC experiment, Zicao extract vs Shikonin compounds
[17] = tested on: S180; assay: Animal test of tumor restraint; format: in vivo
[18] = tested on: Staphylococcus epidermidis; assay: Comparative MIC experiment, Zicao extract vs Shikonin compounds
[19] = tested on: Lewis lung cancer; assay: Animal test of tumor restraint; format: in vivo
[20] = tested on: red trichophyton; assay: In vitro antifungal test; format: cell-based
[21] = tested on: L1210; assay: Animal test of tumor restraint; format: in vivo
[22] = tested on: W256; assay: Animal test of tumor restraint; format: in vivo
[23] = tested on: cryptococcus neoformans; assay: In vitro antifungal test; format: cell-based
[24] = bacteroid, especially bacteroides fragilis
[25] = Gram-positive staphylococcus aureus
[26] = stenotrophomonas bacilli, stated as especially effective, compared with berberine

Structure (SMILES): CC(C)=CC[C@@H](O)C1=CC(=O)c2c(O)ccc(O)c2C1=O [Shikonin]
- MIC ([1]; mycoplasma pneumoniae): 3.751 ì g/ml
- Life prolonged rate [2]: 130.8%
- MIC [3]: 0.391-6.25 ì g/ml
- MIC ([3]; some bacterial strains): 12.5-50 ì g/ml
- MIC [4]: 0.391 - 0.781 ì g/ml
- MIC [5, 24]: 0.391-6.25 ì g/ml
- MIC [6, 25]: 0.391-12.5 ì g/ml
- MIC [7, 26]: 0.391-0.781 ì g/ml

Structure (SMILES): OC(Cn1cncn1)(Cn1cncn1)c1ccc(F)cc1F [fluconazole, reference compound]
- MIC [8]: 32 to 64 µg/mL (≈ 104 to 209 µM)
- MIC90 [8]: 64 µg/mL (≈ 209 µM)

Structure (SMILES): COc1ccc2cc3[n+](cc2c1OC)CCc1cc2c(cc1-3)OCO2 [berberine, reference compound]
- MIC ([7]; Stenotrophomonas): 8 to 32 µg/mL

Structure (SMILES): CC(C)=CCC(OC(=O)C=C(C)C)C1=CC(=O)c2c(O)ccc(O)c2C1=O (stereo not drawn)
- MIC ([1]; Mycoplasma): 2 µg/mL (≈ 5.4 µM)
- toxic reaction [9]: without toxic reaction
- Life prolonged rate [2]: 113.4%
- MIC [3]: 0.391 to 6.25 µg/mL (≈ 1.06 to 16.9 µM)
- MIC ([3]; some bacterial strains): 12.5 to 50 µg/mL (≈ 33.7 to 135 µM)
- MIC [10]: 4.16 to 8.32 µg/mL (≈ 11.2 to 22.5 µM)
- MIC [4]: 0.391 to 0.781 µg/mL (≈ 1.06 to 2.11 µM)
- MIC [11]: 0.391 µg/mL (≈ 1.06 µM)
- MIC [12]: 3.06 to 250 µg/mL (≈ 8.27 to 675 µM)
- MIC [13]: 2.08 to 33.3 µg/mL (≈ 5.62 to 89.9 µM)
- MIC90 [13]: 33.3 µg/mL (≈ 89.9 µM)
- MIC [14]: 0.781 µg/mL (≈ 2.11 µM)
- MIC ([5]; Bacteroides fragilis): 0.391 to 6.25 µg/mL (≈ 1.06 to 16.9 µM)
- MIC [15]: 8.32 to 16.6 µg/mL (≈ 22.5 to 44.8 µM)
- MIC [16]: 3.91 µg/mL (≈ 10.5 µM)
- MIC ([6]; Staphylococcus aureus): 0.391 to 12.5 µg/mL (≈ 1.06 to 33.7 µM)
- MIC ([7]; Stenotrophomonas): 0.391 to 0.781 µg/mL (≈ 1.06 to 2.11 µM)
- Tumor inhibitory rate [17]: 9.63%
- MIC [8]: 4.16 to 8.32 µg/mL (≈ 11.2 to 22.5 µM)
- MIC90 [8]: 4.16 µg/mL (≈ 11.2 µM)
- MIC [18]: 0.391 µg/mL (≈ 1.06 µM)
- Tumor inhibitory rate [19]: 42.8%

Structure (SMILES): CC(=O)O[C@H](CC=C(C)C)C1=CC(=O)c2c(O)ccc(O)c2C1=O [Acetylshikonin]
- MIC [20]: 0.9062- 62.5 ¦Ìg/ml
- Life prolonged rate [21]: 128%
- Tumor inhibitory rate [22]: 77%
- MIC ([1]; mycoplasma pneumoniae): 7.819 ì g/ml
- Life prolonged rate [2]: 112.6%
- Tumor inhibitory rate [2]: 47.8%
- MIC [3]: 0.391-6.25 ì g/ml
- MIC ([3]; some bacterial strains): 12.5-50 ì g/ml
- MIC [4]: 0.391 - 0.781 ì g/ml
- MIC [5, 24]: 0.391-6.25 ì g/ml
- MIC [6, 25]: 0.391-12.5 ì g/ml
- MIC [7, 26]: 0.391-0.781 ì g/ml
- Tumor inhibitory rate [17]: 35.7%
- MIC [23]: 3.906 ¦Ìg/ml
- Tumor inhibitory rate [19]: 52.6%
